Measurements taken from publication PMC7280082 (Acta Pharmaceutica Sinica. B, 2019).

Experiments:
[1] = tested on: WT HIV-1 (IIIB); experiment: microbe, parasite or virus in culture; format: cell-based
[2] = tested on: HIV-2 strain (ROD); experiment: Anti-HIV-2; format: cell-based
[3] = tested on: HIV-1 L100I mutant strain; experiment: microbe, parasite or virus in culture; format: cell-based
[4] = tested on: HIV-1 K103N mutant strain; experiment: microbe, parasite or virus in culture; format: cell-based
[5] = tested on: HIV-1 Y181C mutant strain; experiment: microbe, parasite or virus in culture; format: cell-based
[6] = tested on: HIV-1 Y188L mutant strain; experiment: microbe, parasite or virus in culture; format: cell-based
[7] = tested on: HIV-1 E138K mutant strain; experiment: microbe, parasite or virus in culture; format: cell-based
[8] = tested on: HIV-1 F227L + V106A double-mutant strain; experiment: microbe, parasite or virus in culture; format: cell-based
[9] = tested on: HIV-1 RES056 (K103N + Y181C) double-mutant strain; experiment: microbe, parasite or virus in culture; format: cell-based
[10] = molecular target: WT HIV-1 RT (Human immunodeficiency virus type 1 group M subtype B, UniProt P03366); experiment: Recombinant HIV-1 RT inhibitory assay; format: biochemical
[11] = tested on: Kunming mice; experiment: Acute toxicity experiment in Kunming mice; format: in vivo; conditions: single oral dose of 2000 mg/kg
[12] = In vivo pharmacokinetics in Wistar rat; conditions: plasma
[13] = Cytotoxicity in mock-infected MT-4 cell cultures, MTT method; conditions: human, mock-infected MT-4 cells
[14] = ratio of EC50 (resistant viral strain)/EC50 (wild-type viral strain)

For `Cc1cc(-c2ccc(C#N)cc2)cc(C)c1Oc1nc(NC2CCN(Cc3ccc(C(N)=O)cc3)CC2)nc2ccsc12` [Compound 26, 4-((4-((4-((4′-Cyano-3,5-dimethyl-[1,1′-biphenyl]-4-yl)oxy)thieno[3,2-d]pyrimidin-2-yl)amino)piperidin-1-yl)methyl)benzamide], the EC50 ([1]; Human immunodeficiency virus 1, IIIB, MT4, read-out: EC50 IIIB) was 9.93 ± 1.27 nM, the “SI IIIB” value ([1]; ratio of CC50/EC50) was 552 and the EC50 ([2]; Human immunodeficiency virus 2, MT4, read-out: EC50 ROD) was greater than 5490 nM. For the same compound, the “SI ROD” value ([2]; ratio of CC50/EC50) was less than 1, the “SI L100I” value ([3]; CC50/EC50) was 521 and the EC50 ([3]; Human immunodeficiency virus 1, MT4, read-out: EC50 L100I) was 10.5 ± 4.56 nM. For the same compound, the “RF L100I” value [3, 14] was 1.1, the “SI K103N” value ([4]; CC50/EC50) was 910 and the EC50 ([4]; Human immunodeficiency virus 1, MT4, read-out: EC50 K103N) was 6.02 ± 0.84 nM. The “SI Y181C” value ([5]; CC50/EC50) was 290, the EC50 ([5]; Human immunodeficiency virus 1, MT4, read-out: EC50 Y181C) was 18.9 ± 2.28 nM and the “RF Y181C” value [5, 14] was 1.9. For the same compound, the “SI Y188L” value ([6]; CC50/EC50) was 229, the EC50 ([6]; Human immunodeficiency virus 1, MT4, read-out: EC50 Y188L) was 23.9 ± 2.4 nM and the “RF Y188L” value [6, 14] was 2.4. The “SI E138K” value ([7]; CC50/EC50) was 236, the EC50 ([7]; Human immunodeficiency virus 1, MT4, read-out: EC50 E138K) was 23.2 ± 8.64 nM and the “RF E138K” value [7, 14] was 2.3. For the same compound, the “SI F227L + V106A” value ([8]; CC50/EC50) was 56, the EC50 ([8]; Human immunodeficiency virus 1, MT4, read-out: EC50 F227L + V106A) was 97.2 ± 25.3 nM and the “RF F227L + V106A” value [8, 14] was 9.8. The “SI RES056” value ([9]; CC50/EC50) was 44, the EC50 ([9]; Human immunodeficiency virus 1, MT4, read-out: EC50 RES056) was 125 ± 39.3 nM and the “RF RES056” value [9, 14] was 12.6. The IC50 [10] was 182 ± 16 nM, the “mortality or poisoning symptom” value [11] was “no mortality or poisoning symptom” and the AUC(0-inf) ([12]; iv, 2 mg/kg) was 1340 ± 53.9 ng·h/mL. The AUC(0-t) ([12]; iv, 2 mg/kg) was 1290 ± 62.7 ng·h/mL, the Cmax ([12]; iv, 2 mg/kg) was 941 ± 181 ng/mL and the clearance ([12]; iv, 2 mg/kg) was 25 ± 1.04 mL/min/kg. It also gave a half-life ([12]; iv, 2 mg/kg) of 1.71 ± 0.24 h, a bioavailability ([12]; oral, 20 mg/kg) of 33.8% and an AUC(0-inf) ([12]; po, 20 mg/kg) of 4760 ± 1350 ng·h/mL. The AUC(0-t) ([12]; po, 20 mg/kg) was 4360 ± 1570 ng·h/mL, the Cmax ([12]; po, 20 mg/kg) was 762 ± 296 ng/mL and the Tmax ([12]; po, 20 mg/kg) was 2 ± 0.32 h. It also gave a half-life ([12]; po, 20 mg/kg) of 2.68 ± 0.2 h and a CC50 at 5 days [13] of 5480 ± 2120 nM.
